Values quoted from earlier work as cited in patent publication US20070231358A1, “INTRAVAGINAL TREATMENT OF VAGINAL INFECTIONS WITH METRONIDAZOLE COMPOSITIONS” (Tolmar, Inc., priority 2004, published 2007).
Read-outs that look alike come from different tables or passages of the source.

Tests used:
[1] = after a single oral dose of 2 grams
[2] = tested on: bacterial vaginosis; details: for Cured patients out of 19: four weeks after initiation; for Cure rate (%): four weeks after initiation of therapy
[3] = tested on: bacterial vaginosis; details: oral route; 400 to 500 mg twice daily for three to seven days or 2 grams single dose
[4] = oral 400 mg morning and evening for seven days
[5] = vaginal insert 500 mg every evening for seven days

Concentration of metronidazole in the vaginal fluid [1]: low concentration
SMILES: Cc1ncc([N+](=O)[O-])n1CCO [metronidazole, 1-(2-hydroxyethyl)-2-methyl-5-nitroimidazole]
Side effects ([2]; intravaginal use as the 500 mg insert): No side effects were reported
Cured patients out of 19 [2, 4]: 14
Cure rate (%) [2, 4]: 74%
Cured patients out of 19 [2, 5]: 15
Cure rate (%) [2, 5]: 79%
Lactate-producing microorganisms (Lactobacilli and aerobic Streptococci) after treatment ([2]; vaginal versus oral treatment): found more frequently after vaginal than after oral treatment
Cure rates [3]: 80-90%
